These results are taken from US10988451B2, “MCL-1 inhibitors” (Gilead Sciences, Inc., priority 2018, dated 2021).

Where two headings read alike, the source gives them in different places.

One assay addresses MCL-1/Bim (Homo sapiens (Human), UniProt Q07820). The assay is described as follows: MCL-1/Bim Binding AlphaLISA Assay. The conditions noted are these: 6xHis-Mcl-1 (171-327) and biotinylated Bim peptide (51-76). The procedure: MCL-1/Bim Binding AlphaLISA Assay.
Inhibition of the MCL-1 and Bim interaction was measured in the following AlphaLISA assay.
Recombinant human MCL-1 protein (C-terminal 6×His Tagged Mcl-1 containing residues 171-327) was generated at Gilead Sciences, Inc. (Foster City, Calif.). A biotinylated peptide derived from human Bim (residues 51-76) was purchased from CPC Scientific (Sunnyvale, Calif.). (CPC 834113). AlphaLISA anti-6His-acceptor beads (AL128R), AlphaScreen Streptavidin donor beads (6760002B), and Proxiplate-384 Plus (6008289) were purchased from PerkinElmer.
The AlphaLISA assay was performed in a 384-well Proxiplate in a total volume of 40 μL. The reaction mixture contained 0.0625 nM 6× His-Mcl-1 (171-327), 0.0625 nM biotinylated-Bim peptide, 10 μg/mL AlphaLISA anti-6×His-AlphaLISA acceptor beads, 40 μg/mL AlphaScreen streptavidin donor beads, and serially diluted test compounds in the binding buffer (20 mM Hepes, pH 7.5 (Teknova H1035); 150 mM NaCl (Promega V4221); 0.002% Brij 35 (Thermo Scientific 20150); 1 mM Dithiothreitol (DTT) Solution (Affymetrix 70726); 0.01% BSA (BioLabs B9000S)). 1,000× test compounds were pre-spotted onto 384-well Proxiplate (Labcyte Echo) by Echo 555 Liquid Handler (Labcyte Inc., San Jose, Calif.) followed by incubation of 5 μl Mcl-1(171-327) for 1 hour. Then 5 μL Bim (51-76) was added and incubated for 2 hours. Five μL AlphaLISA anti-6His-AlphaLISA acceptor beads were then added for 1 hour followed by addition of 5 μL AlphaScreen streptavidin donor beads for 1 hour. The reaction plates were then read on an Envision multimode reader (PerkinElmer) using AlphaScreen settings. […] Percent inhibition was calculated as shown below: % Inhibition=100%*(Well−Neg)/(Pos−Neg) Neg: negative control, DMSO Pos: positive control, no Mcl-1 protein, no biotinylated-Bim peptide
For orientation: In Alpha technology, singlet oxygen from a donor bead excites a nearby acceptor bead.

In another assay the test system is SKBR3 cells. The experiment in a line: SKBR3 Cell Viability Assay. The assay is classed as cell-based. The conditions noted are these: CellTiter Glo, read-out: MCL-1 CV SKBR3 EC50. The method, then: SKBR3 Cell Viability Assay Materials
SKBR3 Cells (ATCC HTB-30) were obtained from ATCC (Manassas, Va.) and cultured in McCoy 5A's medium (ATCC 30-2007)+10% fetal bovine serum (SH30071.03, HyClone, Pittsburgh, Pa.) plus 1× Penicillin-Streptomycin L-glutamine (Corning 30-009-C1, Corning, N.Y.)).
The cell viability assay was conducted in a 384-well tissue culture plate (Grenier 781086, Monroe, N.C.) in a total volume of 70 μL. Test compounds were prepared in 1,000×, serially diluted, and pre-spotted into 384-well tissue culture plate by Echo 555 Liquid Handler (Labcyte Inc., San Jose, Calif.). Seventy μ1 of 6,000 SKBR3 cells were dispensed into each well of the plate and incubated at 37° C. with 5% CO2 for 72 hours. At the end of incubation, 2× CellTiter Glo (CTG) reagents (1 part buffer with 2 parts substrate) (Promega, Madison, Wis.) were prepared, and the plate and the reagent were equilibrated to room temperature for 30 minutes. CTG reagent was added to each plate by Biomek FX at 20 μL/well with 5 times pipetting and mixing to induce cell lysis. Luminescence was read by Envision multimode reader (PerkinElmer). […] Percent inhibition was calculated as followed: % Inhibition=100%*(Well−Neg)/(Pos−Neg) Neg, negative control, DMSO Pos, positive control, 10 μM Puromycin

MCL-1/Bim, sequence (Q07820 171-327): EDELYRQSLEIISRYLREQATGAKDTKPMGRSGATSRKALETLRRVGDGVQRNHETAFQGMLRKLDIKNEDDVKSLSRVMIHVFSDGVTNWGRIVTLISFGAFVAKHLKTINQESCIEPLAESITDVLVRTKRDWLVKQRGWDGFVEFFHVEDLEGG

As usually defined, the IC50 is the concentration needed to halve the response being measured. What is called EC50 is the concentration that produces a half-maximal response. Regarding `CO[C@H]1/C=C/CCCS(=O)(NC(=O)CCc2ccnn2C)=NC(=O)c2ccc3c(c2)N(C[C@@H]2CC[C@H]21)C[C@@]1(CCCc2cc(Cl)ccc21)CO3` (single isomer, unassigned) [Example 48], the IC50 on MCL-1/Bim stood at 3.7 nM. In addition, the EC50 in the assay on SKBR3 cells (Homo sapiens, SK-BR-3, 72 h) stood at 8450 nM.

`CO[C@H]1/C=C/CCCS(=O)(NC(=O)CCN(C)C)=NC(=O)c2ccc3c(c2)N(C[C@@H]2CC[C@H]21)C[C@@]1(CCCc2cc(Cl)ccc21)CO3` (stereo partly shown) [Example 15] gave an IC50 on MCL-1/Bim of 7.4 nM. Further, the EC50 in the assay with SKBR3 cells (Homo sapiens, SK-BR-3, 72 h) is 7730 nM.

`CC[C@H]1CN2C[C@@]3(CCCc4cc(Cl)ccc43)COc3ccc(cc32)C(=O)N=[S@](=O)(NC(=O)NC(C)C)CCC/C=C/[C@H](OC)[C@@H]1C` [Example 19] displayed a half-maximal inhibitory concentration (IC50) on MCL-1/Bim of 1.1 nM. The EC50 with SKBR3 cells (Homo sapiens, SK-BR-3, 72 h) worked out at 1080 nM.

In the case of `CC[C@H]1CN2C[C@@]3(CCCc4cc(Cl)ccc43)COc3ccc(cc32)C(=O)N=[S@](=O)(NC(=O)Cc2cnccn2)CCC/C=C/[C@H](OC)[C@@H]1C` [Example 20], the IC50 at MCL-1/Bim came out at 0.5 nM. The EC50 in the assay on SKBR3 cells (Homo sapiens, SK-BR-3, 72 h) worked out at 2060 nM. At MCL-1/Bim, `CO[C@H]1/C=C/CCC[S@@](=O)(NC(=O)CCc2ccnn2C)=NC(=O)c2ccc3c(c2)N(C[C@@H]2CC[C@H]21)C[C@@]1(CCCc2cc(Cl)ccc21)CO3` [Example 22] registered an IC50 of 0.1 nM. For the same molecule, the EC50 in the assay with SKBR3 cells (72 hours) came to 259 nM. With `CC[C@H]1CN2C[C@@]3(CCCc4cc(Cl)ccc43)COc3ccc(cc32)C(=O)N=[S@](=O)(NC(C)=O)CCC/C=C/[C@H](OC)[C@@H]1C` [Example 25], the IC50 on MCL-1/Bim is 0.6 nM. In the assay on SKBR3 cells (Homo sapiens, SK-BR-3, 72 h), the EC50 was found to be 2010 nM. `CC[C@H]1CN2C[C@@]3(CCCc4cc(Cl)ccc43)COc3ccc(cc32)C(=O)N=[S@](=O)(NC(=O)CC(C)C)CCC/C=C/[C@H](OC)[C@@H]1C` [Example 26]: the IC50 at MCL-1/Bim was 1.8 nM. The EC50 in the assay on SKBR3 cells (Homo sapiens, SK-BR-3, 72 h) is 1690 nM. For `CO[C@H]1/C=C/CCC[S@@](=O)(NC(=O)NCc2ccc(F)cc2)=NC(=O)c2ccc3c(c2)N(C[C@@H]2CC[C@H]21)C[C@@]1(CCCc2cc(Cl)ccc21)CO3` [Example 37] the same measures were 1.4 nM and 1610 nM.

On to `CO[C@H]1/C=C/C[C@H](C)[C@@H](C)[S@](=O)(NC(=O)CCc2ccnn2C)=NC(=O)c2ccc3c(c2)N(C[C@@H]2CC[C@H]21)C[C@@]1(CCCc2cc(Cl)ccc21)CO3` [Example 50], for which the IC50 on MCL-1/Bim came out at 1.4 nM. Besides, the EC50 in the assay on SKBR3 cells (Homo sapiens, SK-BR-3, 72 h) came to 3320 nM. Take `CO[C@H]1/C=C/CCC[S@@](=O)(NC(=O)CCc2ccn(C)n2)=NC(=O)c2ccc3c(c2)N(C[C@@H]2CC[C@H]21)C[C@@]1(CCCc2cc(Cl)ccc21)CO3` [Example 51]: the IC50 at MCL-1/Bim was 0.1 nM. Moreover, the EC50 in the assay on SKBR3 cells (Homo sapiens, SK-BR-3, 72 h) was determined as 705 nM.

On MCL-1/Bim, `CO[C@H]1/C=C/C[C@H](C)[C@@H](C)[S@@](=O)(NC(=O)c2cnn(C3COC3)c2)=NC(=O)c2ccc3c(c2)N(C[C@@H]2CC[C@H]21)C[C@@]1(CCCc2cc(Cl)ccc21)CO3` [Example 152] displayed an IC50 of 0.057 nM. Also, the EC50 in the assay with SKBR3 cells (Homo sapiens, SK-BR-3, 72 h) was determined as 55.7 nM.

On MCL-1/Bim, `CO[C@H]1/C=C/C[C@H](C)C[S@@](=O)(NC(=O)c2ccc3c(c2)COCC3)=NC(=O)c2ccc3c(c2)N(C[C@@H]2CC[C@H]21)C[C@@]1(CCCc2cc(Cl)ccc21)CO3` [Example 157] yielded an IC50 of 0.234 nM. Moreover, the EC50 in the assay with SKBR3 cells (Homo sapiens, SK-BR-3, 72 h) was 64.8 nM. With `COC1Cc2cc(C(=O)N[S@@]3(=O)=NC(=O)c4ccc5c(c4)N(C[C@@H]4CC[C@H]4[C@@H](OC)/C=C/C[C@H](C)C3)C[C@@]3(CCCc4cc(Cl)ccc43)CO5)cn2C1` (stereo partly shown) [Example 205], the IC50 at MCL-1/Bim was 0.075 nM. The EC50 with SKBR3 cells (Homo sapiens, SK-BR-3, 72 h) was 58.9 nM. For `CO[C@H]1/C=C/C[C@H](C)C[S@@](=O)(CC(=O)N[C@@H]2CC[C@@H](O)C2)=NC(=O)c2ccc3c(c2)N(C[C@@H]2CC[C@H]21)C[C@@]1(CCCc2cc(Cl)ccc21)CO3` [Example 222] the same measures were 0.044 nM and 80.1 nM. At MCL-1/Bim, `COc1nn(C)cc1C(=O)N[S@@]1(=O)=NC(=O)c2ccc3c(c2)N(C[C@@H]2CC[C@H]2[C@@H](O)/C=C/[C@H](O)[C@H](C)C1)C[C@@]1(CCCc2cc(Cl)ccc21)CO3` [Example 279] yielded an IC50 of 0.041 nM. For `COc1nn(C)cc1C(=O)N[S@@]1(=O)=NC(=O)c2ccc3c(c2)N(C[C@@H]2CC[C@H]2[C@@H](O)/C=C/C[C@H](C)[C@H]1C)C[C@@]1(CCCc2cc(Cl)ccc21)CO3` [Example 359], at MCL-1/Bim, the IC50 was 0.038 nM. For the same molecule, in the assay on SKBR3 cells (Homo sapiens, SK-BR-3, 72 h), the EC50 stood at 19 nM. For the molecule `COc1nn(C)cc1C(=O)N[S@@]1(=O)=NC(=O)c2ccc3c(c2)N(C[C@@H]2CC[C@H]2[C@@H](OC)/C=C/[C@H](OC(=O)CCc2ccccc2)[C@H](C)C1)C[C@@]1(CCCc2cc(Cl)ccc21)CO3` [Example 377], the IC50 on MCL-1/Bim worked out at 0.106 nM. In the assay on SKBR3 cells (72 hours), the half-maximal effective concentration (EC50) was 34 nM. `CO[C@H]1/C=C/C[C@H](C)C[S@@](=O)(NC(=O)C2CC(OC(F)F)C2)=NC(=O)c2ccc3c(c2)N(C[C@@H]2CC[C@H]21)C[C@@]1(CCCc2cc(Cl)ccc21)CO3` (stereo partly shown) [Example 431]: on MCL-1/Bim, the IC50 is 0.121 nM.
